Values quoted from earlier work as cited in US8753679B2, “Capsule formulation of pirfenidone and pharmaceutically acceptable excipients” (Intermune, Inc., priority 2005, dated 2014).
Where two headings read alike, the source gives them in different places.

What was measured:
[1] = single oral dose 400 mg as four 100 mg capsules of 100% pirfenidone, 10 healthy adult males, plasma
[2] = 200 mg single dose on day 1, coated tablet with excipients, 15 patients, serum
[3] = oral 400 mg, capsule of 100% pirfenidone
[4] = tested on: human mesenchymal-like cells (including lung fibroblasts, skin fibroblasts, prostate stromal cells, and renal mesangial cells)
[5] = tested on: pulmonary fibrosis; conditions: after 4 to 6 months on oral pirfenidone
[6] = tested on: benign prostate hypertrophy; conditions: oral pirfenidone, older men with clinically advanced BPH

- AUC6hr [1]: 20.8±10.0 μg/mL-hr
- T1/2 [1]: 2.2 ± 0.6 h
- Tmax [1]: 0.9 ± 0.3 h
- Cmax ([1]; gas chromatography): 6300 ± 2500 ng/mL
- AUC4hr [2]: 7300 ± 1600 ng·h/mL
- T1/2 [2]: 3.5 ± 2.2 h
- Tmax [2]: 1.8 ± 1.1 h
- Cmax ([2]; HPLC): 2700 ± 700 ng/mL
- T1/2 ([3]; ten human volunteers): 2.87 ± 0.22 h
- time at which maximum serum pirfenidone level was reached ([3]; ten human volunteers (FIG. 3)): between one and three hours
Compound: Cc1ccc(=O)n(-c2ccccc2)c1 [Pirfenidone, 5-methyl-1-phenyl-2-(1H)-pyridone]
- effective levels relative to levels exerting pharmacologically toxic effects on the cells ([4]; graded concentrations in cell culture media): ten to twenty times lower
- effect on excessive cell proliferation induced by cytokine growth factors (TGF-β1, bFGF, PDGF, and EGF) ([4]; in vitro cell cultures): pharmacologic inhibition
- lung function (pulmonary function tests, VC, DLCO) [5]: inhibition or blocking of further deterioration in lung function
- response of patients based on objective criteria [6]: functional improvement
- observed side effects (after oral administration, drowsiness, gastric nausea or photosensitivity rash): relatively mild
- serious adverse reactions (clinical investigations): No serious adverse reactions
